Tests used:
[1] = tested on: CD8+ T cells; experiment: In vitro immunogenicity: T-cell priming with aAPCs loaded with peptide/MHC and anti-CD28, pMHC multimer readout; assay type: cell-based, human; settings: CD8+ T cells of healthy donors, three stimulation cycles; for Wells positive [%]: HLA-A*02 restricted peptides; for wells (in vitro immunogenicity, positive wells): HLA class I peptides
Description: In an aspect, the peptides are pre-screened for immunogenicity before being included in the warehouse. By way of example, and not limitation, the immunogenicity of the peptides included in the warehouse is determined by a method comprising in vitro T-cell priming through repeated stimulations of CD8+ T cells from healthy donors with artificial antigen presenting cells loaded with peptide/MHC complexes and anti-CD28 antibody.
CD8+ T cells were primed using artificial APCs coated with anti-CD28 mAb and HLA-A*02 in complex with SeqID No 1 peptide (FIG. 3C, left panel), SeqID No 5 peptide (FIG. 3D left panel), SeqID No 32 peptide (FIG. 3E, left panel) and SeqID No 220 peptide (FIG. 3F, left panel), respectively. After three cycles of stimulation, the detection of peptide-reactive cells was performed by 2D multimer staining with A*02/SeqID No 1 (FIG. 3C), A*02/SeqID No 5 (FIG. 3D), A*02/SeqID No 32 (FIG. 3E) or A*02/SeqID No 220 (FIG. 3F). Right panels (FIGS. 3C, 3D, 3E and 3F) show control staining of cells stimulated with irrelevant A*02/peptide complexes. Viable singlet cells were gated for CD8+ lymphocytes. Boolean gates helped excluding false-positive events detected with multimers specific for different peptides.
In order to obtain information regarding the immunogenicity of the TUMAPs of the present invention, the inventors performed investigations using an in vitro T-cell priming assay based on repeated stimulations of CD8+ T cells with artificial antigen presenting cells (aAPCs) loaded with peptide/MHC complexes and anti-CD28 antibody.
In order to perform in vitro stimulations by artificial antigen presenting cells loaded with peptide-MHC complex (pMHC) and anti-CD28 antibody, the inventors first isolated CD8+ T cells from fresh HLA-A*02 leukapheresis products via positive selection using CD8 microbeads (Miltenyi Biotec, Bergisch-Gladbach, Germany) of healthy donors obtained from the University clinics Mannheim, Germany, after informed consent.
PBMCs and isolated CD8+ lymphocytes were incubated in T-cell medium (TCM) until use consisting of RPMI-Glutamax (Invitrogen, Karlsruhe, Germany) supplemented with 10% heat inactivated human AB serum (PAN-Biotech, Aidenbach, Germany), 100 U/ml Penicillin/100 μg/ml Streptomycin (Cambrex, Cologne, Germany), 1 mM sodium pyruvate (CC Pro, Oberdorla, Germany), 20 μg/ml Gentamycin (Cambrex). 2.5 ng/ml IL-7 (PromoCell, Heidelberg, Germany) and 10 U/ml IL-2 (Novartis Pharma, Nirnberg, Germany) were also added to the TCM at this step.
Generation of pMHC/anti-CD28 coated beads, T-cell stimulations and readout was performed in a highly defined in vitro system using four different pMHC molecules per stimulation condition and 8 different pMHC molecules per readout condition.
The purified co-stimulatory mouse IgG2a anti human CD28 Ab 9.3 (Jung et al., 1987) was chemically biotinylated using Sulfo-N-hydroxysuccinimidobiotin as recommended by the manufacturer (Perbio, Bonn, Germany). Beads used were 5.6 μm diameter streptavidin coated polystyrene particles (Bangs Laboratories, Illinois, USA).
800.000 beads/200 μl were coated in 96-well plates in the presence of 4×12.5 ng different biotin-pMHC, washed and 600 ng biotin anti-CD28 were added subsequently in a volume of 200 μl. Stimulations were initiated in 96-well plates by co-incubating 1×10^6 CD8+ T cells with 2×10^5 washed coated beads in 200 μl TCM supplemented with 5 ng/ml IL-12 (PromoCell) for 3 days at 37° C. Half of the medium was then exchanged by fresh TCM supplemented with 80 U/ml IL-2 and incubating was continued for 4 days at 37° C. This stimulation cycle was performed for a total of three times. For the pMHC multimer readout using 8 different pMHC molecules per condition, a two-dimensional combinatorial coding approach was used as previously described (Andersen et al., 2012) with minor modifications encompassing coupling to 5 different fluorochromes.

[2] = target: HLA-A*02:01 (Homo sapiens, UniProt P04439, D140Y/D185E/D98H/E176V/E277Q/G131W/G231S/I119V/I121R/I166T/I218V/L300P/L318F/N151K/N90K/P208A/P217A/Q86G/Q94H/R138H/R169H/T345S); experiment: MHC binding assay: UV-ligand exchange with β2m ELISA (peptide exchange yield); settings: MHC class I binding score; binding to HLA-A*02:01 ranged by peptide exchange yield (UV-ligand exchange, β2m ELISA)
Procedure, shortened: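 Binding capacity is expressed as the yield of UV-mediated ligand exchange, reflecting how well each peptide stabilizes peptide-receptive MHC. Stabilized complexes are read out by anti-β2m HRP ELISA (450 nm) after streptavidin capture, with refolded MLA-001 monomer standards for quantitation.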

Substance	Peptide Exchange [2]	Wells positive [%] [1]	wells (in vitro immunogenicity, positive wells) [1]
1 (AIPPSFASIFL; listed as Homo sapiens) [compound 1]	″+++″ (≥50 = +++)	″+++″ (50%-69% = +++)	–
2 (ALHRPDVYL; listed as Homo sapiens) [compound 2]	″+++″ (≥50 = +++)	″+″ (<20% = +)	–
5 (ALIFKIASA; listed as Homo sapiens) [compound 5]	″+++″ (≥50 = +++)	″+++″ (50%-69% = +++)	–
17 (ALTKTNLQL; listed as Homo sapiens) [compound 17]	″+++″ (≥50 = +++)	″+″ (<20% = +)	–
26 (AVLLVLPLV; listed as Homo sapiens) [compound 26]	″+++″ (≥50 = +++)	″+″ (<20% = +)	–
32 (FIDKFTPPV; listed as Homo sapiens) [compound 32]	″++++″ (≥75% = ++++)	″++++″ (> = 70% = ++++)	–
49 (FLTDLFAQL; listed as Homo sapiens) [compound 49]	″++++″ (≥75% = ++++)	″++″ (20%-49% = ++)	–
54 (FLYPFPLALF; listed as Homo sapiens) [compound 54]	″+++″ (≥50 = +++)	″+″ (<20% = +)	–
56 (FVFEAPYTL; listed as Homo sapiens) [compound 56]	″+++″ (≥50 = +++)	″++″ (20%-49% = ++)	–
57 (GLSEISLRL; listed as Homo sapiens) [compound 57]	″++++″ (≥75% = ++++)	″+″ (<20% = +)	–
69 (GLHQREIFL; listed as Homo sapiens) [compound 69]	″+++″ (≥50 = +++)	″+″ (<20% = +)	–
81 (WLVGQEFEL; listed as Homo sapiens) [compound 81]	″+++″ (≥50 = +++)	″+″ (<20% = +)	–
86 (HLYPGAVTI; listed as Homo sapiens) [compound 86]	″+++″ (≥50 = +++)	″+″ (<20% = +)	–
96 (ILIDKTSFV; listed as Homo sapiens) [compound 96]	″+++″ (≥50 = +++)	″+″ (<20% = +)	–
100 (ILNNEVFAI; listed as Homo sapiens) [compound 100]	″+++″ (≥50 = +++)	″++″ (20%-49% = ++)	–
101 (ILVVIEPLL; listed as Homo sapiens) [compound 101]	″++++″ (≥75% = ++++)	″+″ (<20% = +)	–
102 (IQDRAVPSL; listed as Homo sapiens) [compound 102]	″++″ (≥20% = ++)	″+″ (<20% = +)	–
112 (KTLDVDATYEI; listed as Homo sapiens) [compound 112]	″+++″ (≥50 = +++)	″+″ (<20% = +)	–
114 (LIPEGPPQV; listed as Homo sapiens) [compound 114]	″+++″ (≥50 = +++)	″+″ (<20% = +)	–
154 (SLLAELHVLTV; listed as Homo sapiens) [compound 154]	″++++″ (≥75% = ++++)	″+″ (<20% = +)	–
192 (YIQEYLTLL; listed as Homo sapiens) [compound 192]	″+++″ (≥50 = +++)	″+″ (<20% = +)	–
197 (YLQEVPILTL; listed as Homo sapiens) [compound 197]	″++++″ (≥75% = ++++)	″+″ (<20% = +)	–
200 (YMFEEVPIVI; listed as Homo sapiens) [compound 200]	″++++″ (≥75% = ++++)	″+″ (<20% = +)	–
427 (LLYDAVHIV; listed as Homo sapiens) [compound 427]	–	–	++ (20%-49% = ++)
521 (YLYGQTTTYL; listed as Homo sapiens) [compound 521]	–	–	++ (20%-49% = ++)

More lines, main results first:

Peptide Exchange [2]	Substance	Wells positive [%] [1]	wells (in vitro immunogenicity, positive wells) [1]
″++++″ (≥75% = ++++)	201 (YQLELHGIEL; listed as Homo sapiens) [compound 201]	″+″ (<20% = +)	–
″++++″ (≥75% = ++++)	202 (YVDDVFLRV; listed as Homo sapiens) [compound 202]	″++″ (20%-49% = ++)	–
″+++″ (≥50 = +++)	220 (ALPEILFAKV; listed as Homo sapiens) [compound 220]	″++″ (20%-49% = ++)	–
″+++″ (≥50 = +++)	240 (ILARDILEI; listed as Homo sapiens) [compound 240]	″+″ (<20% = +)	–
″+++″ (≥50 = +++)	281 (NLLDDRGMTAL; listed as Homo sapiens) [compound 281]	″+″ (<20% = +)	–
″+++″ (≥50 = +++)	282 (LLRDGIELV; listed as Homo sapiens) [compound 282]	″++″ (20%-49% = ++)	–
″+++″ (≥50 = +++)	307 (LLLTKPTEA; listed as Homo sapiens) [compound 307]	″+″ (<20% = +)	–
″++++″ (≥75% = ++++)	320 (TIAPVTVAV; listed as Homo sapiens) [compound 320]	″+″ (<20% = +)	–
″+++″ (≥50 = +++)	322 (SLASIHVPL; listed as Homo sapiens) [compound 322]	″+″ (<20% = +)	–
″++++″ (≥75% = ++++)	323 (SLDLFNCEV; listed as Homo sapiens) [compound 323]	″+″ (<20% = +)	–
″++++″ (≥75% = ++++)	329 (VLMDGSVKL; listed as Homo sapiens) [compound 329]	″+++″ (50%-69% = +++)	–
″+++″ (≥50 = +++)	332 (VMIQHVENL; listed as Homo sapiens) [compound 332]	″+″ (<20% = +)	–
″+++″ (≥50 = +++)	380 (YLDRKLLTL; listed as Homo sapiens) [compound 380]	″++++″ (> = 70% = ++++)	–
